Experiments:
[1] = biological target: T1, STAT5A (Homo sapiens, UniProt P42229); test: Fluorescence polarization (FP) binding assay, STAT5A; conditions: FP competition, 5 nM fluorescein-labeled tracer, 200 nM protein, PBS pH7.4
T1 sequence (P42229 1-794): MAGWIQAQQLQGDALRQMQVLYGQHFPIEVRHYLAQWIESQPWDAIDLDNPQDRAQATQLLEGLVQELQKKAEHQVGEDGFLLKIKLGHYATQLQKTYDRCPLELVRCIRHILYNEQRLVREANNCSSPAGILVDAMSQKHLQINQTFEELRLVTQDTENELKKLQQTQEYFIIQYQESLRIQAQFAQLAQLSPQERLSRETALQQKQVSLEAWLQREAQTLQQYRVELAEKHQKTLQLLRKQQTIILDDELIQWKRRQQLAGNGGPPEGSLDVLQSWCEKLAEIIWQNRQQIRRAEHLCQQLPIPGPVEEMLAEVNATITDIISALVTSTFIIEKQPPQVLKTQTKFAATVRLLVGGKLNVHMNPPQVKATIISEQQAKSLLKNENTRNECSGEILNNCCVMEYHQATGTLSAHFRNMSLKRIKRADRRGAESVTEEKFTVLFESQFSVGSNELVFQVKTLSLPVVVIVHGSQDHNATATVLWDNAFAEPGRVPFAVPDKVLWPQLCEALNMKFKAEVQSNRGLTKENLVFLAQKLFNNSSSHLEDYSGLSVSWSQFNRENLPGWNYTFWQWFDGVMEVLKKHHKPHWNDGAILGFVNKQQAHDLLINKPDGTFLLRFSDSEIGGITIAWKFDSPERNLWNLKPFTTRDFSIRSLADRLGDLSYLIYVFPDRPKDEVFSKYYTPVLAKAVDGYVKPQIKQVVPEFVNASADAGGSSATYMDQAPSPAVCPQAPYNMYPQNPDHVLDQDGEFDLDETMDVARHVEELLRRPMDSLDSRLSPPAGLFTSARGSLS
Protocol: Evaluation of the activity of the inhibitors may be accomplished by fluorescence polarization (FP) experiments. A representative general protocol is the following:
Fluorescence polarization (FP) experiments are performed in black round-bottom plates using the CLARIOstar microplate reader. To each well, fluorescein-labeled tracer and STAT5 or STAT6 protein are added in assay buffer. […] The inhibition constants are determined as the concentration of the STAT5 or STAT6 at which 50% of the ligand is bound.
Fluorescence polarization (FP) experiments were performed in 96-well, black round-bottom plates (Microfluor 2, Fisher Scientific) using the CLARIOstar microplate reader (BMG Labtech). To each well, 5 nM of fluoresceinlabeled tracer and 200 nM of STAT5 and/or STAT6 protein were added to a final volume of 100 μl in the assay buffer (PBS pH7.4+0.01% BGG+0.01% Tween-20, 2 mM DTT). The plate was mixed on a shaker for 15 m and incubated at room temperature for 1 h to reach equilibrium. […] All experimental data were analyzed using Prism 8.0 software (GraphPad Software), and the inhibition constants were determined by nonlinear curve fitting as the concentration of the STAT5 and/or STAT6 at which 50% of the ligand is bound.

[2] = biological target: T2, STAT6 protein (Homo sapiens, UniProt P42226); test: Fluorescence polarization (FP) binding assay, STAT6; conditions: FP competition, 5 nM fluorescein-labeled tracer, 200 nM protein, PBS pH7.4; read-out: Binding STAT6
T2 sequence (P42226 1-847): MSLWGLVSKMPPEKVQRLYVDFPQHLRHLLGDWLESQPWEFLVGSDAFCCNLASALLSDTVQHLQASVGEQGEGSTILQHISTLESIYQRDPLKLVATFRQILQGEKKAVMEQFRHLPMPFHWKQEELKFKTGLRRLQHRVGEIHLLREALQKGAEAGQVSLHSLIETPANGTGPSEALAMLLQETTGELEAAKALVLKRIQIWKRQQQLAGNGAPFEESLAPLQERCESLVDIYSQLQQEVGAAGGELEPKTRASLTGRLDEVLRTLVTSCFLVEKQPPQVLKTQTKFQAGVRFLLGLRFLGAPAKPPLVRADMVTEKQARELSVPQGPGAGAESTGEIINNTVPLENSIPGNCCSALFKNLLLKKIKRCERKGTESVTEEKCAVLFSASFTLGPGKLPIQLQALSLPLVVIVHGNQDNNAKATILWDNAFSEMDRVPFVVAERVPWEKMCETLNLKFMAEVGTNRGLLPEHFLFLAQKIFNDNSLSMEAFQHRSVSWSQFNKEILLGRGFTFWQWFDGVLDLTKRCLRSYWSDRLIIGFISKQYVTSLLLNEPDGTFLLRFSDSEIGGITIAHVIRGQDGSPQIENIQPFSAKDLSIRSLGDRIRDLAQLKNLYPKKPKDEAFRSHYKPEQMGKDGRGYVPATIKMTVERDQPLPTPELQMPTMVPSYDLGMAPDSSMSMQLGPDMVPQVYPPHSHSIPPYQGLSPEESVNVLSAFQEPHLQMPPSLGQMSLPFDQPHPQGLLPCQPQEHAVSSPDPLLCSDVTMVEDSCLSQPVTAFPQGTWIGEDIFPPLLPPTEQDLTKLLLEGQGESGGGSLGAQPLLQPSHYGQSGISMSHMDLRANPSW
Summary of the method: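 Each well holds 200 nM STAT5 and/or STAT6 with 5 nM fluorescent tracer in PBS pH 7.4 (0.01% BGG, 0.01% Tween-20, 2 mM DTT). Binding reaches equilibrium over 1 h at room temperature after brief shaking, and polarization data are fitted nonlinearly.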

| SMILES | Ki [1] | Ki [2] |
| --- | --- | --- |
| CC(C)(C)[C@H](NC(=O)/C=C/c1ccc(C(F)(F)P(=O)(O)O)cc1)C(=O)N1CCC[C@H]1C(=O)N(c1ccccc1)c1ccc(I)cc1 [Compound 1, (difluoro(4-((E)-3-(((S)-1-((S)-2-((4-iodophenyl)(phenyl)carbamoyl)pyrrolidin-1-yl)-3,3-dimethyl-1-oxobutan-2-yl)amino)-3-oxoprop-1-en-1-yl)phenyl)methyl)phosphonic acid] | > 10 µM | 0.1 to 1 µM |
| CC(C)(C)[C@H](NC(=O)c1cc2cc(C(F)(F)P(=O)(O)O)ccc2[nH]1)C(=O)N1CCC[C@H]1C(=O)N(c1ccccc1)c1ccc(I)cc1 [Compound 2, (difluoro(2-(((S)-1-((S)-2-((4-iodophenyl)(phenyl)carbamoyl)pyrrolidin-1-yl)-3,3-dimethyl-1-oxobutan-2-yl)carbamoyl)-1H-indol-5-yl)methyl)phosphonic acid] | 1 to 10 µM | 0.1 to 1 µM |
| CC(=O)N1CC[C@H]2CC[C@@H](C(=O)NC(c3ccccc3)c3ccccc3)N2C(=O)[C@@H](NC(=O)c2cc3cc(C(F)(F)P(=O)(O)O)ccc3[nH]2)C1 [Compound 3, ((2-(((5S,8S,10aR)-3-acetyl-8-(benzhydrylcarbamoyl)-6-oxodecahydropyrrolo[1,2-a][1,5]diazocin-5-yl)carbamoyl)-1H-indol-5-yl)difluoromethyl)phosphonic acid] | > 10 µM | 1 to 10 µM |
| CC(=O)N1CC[C@H]2CC[C@@H](C(=O)NC(c3ccccc3)c3ccccc3)N2C(=O)[C@@H](NC(=O)/C=C/c2ccc(C(F)(F)P(=O)(O)O)cc2)C1 [Compound 5, ((4-((E)-3-(((5S,8S,10aR)-3-acetyl-8-(benzhydrylcarbamoyl)-6-oxodecahydropyrrolo[1,2-a][1,5]diazocin-5-yl)amino)-3-oxoprop-1-en-1-yl)phenyl)difluoromethyl)phosphonic acid] | > 10 µM | > 10 µM |
| CC(=O)N1CC[C@H]2CC[C@@H](C(=O)Nc3ccc(I)cc3)N2C(=O)[C@@H](NC(=O)/C=C/c2ccc(C(F)(F)P(=O)(O)O)cc2)C1 [Compound 6, ((4-((E)-3-(((5S,8S,10aR)-3-acetyl-8-((4-iodophenyl)carbamoyl)-6-oxodecahydropyrrolo[1,2-a][1,5]diazocin-5-yl)amino)-3-oxoprop-1-en-1-yl)phenyl)difluoromethyl)phosphonic acid] | > 10 µM | 1 to 10 µM |
| CC(=O)N1CC[C@H]2CC[C@@H](C(=O)N(C)C(c3ccccc3)c3ccccc3)N2C(=O)[C@@H](NC(=O)c2cc3cc(C(F)(F)P(=O)(O)O)ccc3[nH]2)C1 [Compound 7, ((2-(((5S,8S,10aR)-3-acetyl-8-(benzhydryl(methyl)carbamoyl)-6-oxodecahydropyrrolo[1,2-a][1,5]diazocin-5-yl)carbamoyl)-1H-indol-5-yl)difluoromethyl)phosphonic acid] | > 10 µM | 1 to 10 µM |
| NCCCC[C@H](NC(=O)/C=C/c1ccc(C(F)(F)P(=O)(O)O)cc1)C(=O)N1CCC[C@H]1C(=O)N1CCc2ccccc2C1 [Compound 8, ((4-((E)-3-(((S)-6-amino-1-oxo-1-((S)-2-(1,2,3,4-tetrahydroisoquinoline-2-carbonyl)pyrrolidin-1-yl)hexan-2-yl)amino)-3-oxoprop-1-en-1-yl)phenyl)difluoromethyl)phosphonic acid] | > 10 µM | > 10 µM |
| NCCCC[C@H](NC(=O)c1cc2cc(C(F)(F)P(=O)(O)O)ccc2[nH]1)C(=O)N1CCC[C@H]1C(=O)N1CCc2ccccc2C1 [Compound 9, ((2-(((S)-6-amino-1-oxo-1-((S)-2-(1,2,3,4-tetrahydroisoquinoline-2-carbonyl)pyrrolidin-1-yl)hexan-2-yl)carbamoyl)-1H-indol-5-yl)difluoromethyl)phosphonic acid] | > 10 µM | 1 to 10 µM |
| CC(C)(C)[C@H](NC(=O)c1cc2cc(C(F)(F)P(=O)(O)O)ccc2[nH]1)C(=O)N1CCC[C@H]1C(=O)N[C@@H]1CCCc2ccccc21 [Compound 10, ((2-(((S)-3,3-dimethyl-1-oxo-1-((S)-2-(((R)-1,2,3,4-tetrahydronaphthalen-1-yl)carbamoyl)pyrrolidin-1-yl)butan-2-yl)carbamoyl)-1H-indol-5-yl)difluoromethyl)phosphonic acid] | > 10 µM | 1 to 10 µM |
| CC(C)(C)[C@H](NC(=O)c1cc2cc(C(F)(F)P(=O)(O)O)ccc2[nH]1)C(=O)N1CCC[C@H]1C(=O)N[C@H]1CCCc2ccccc21 [Compound 11, ((2-(((S)-3,3-dimethyl-1-oxo-1-((S)-2-(((S)-1,2,3,4-tetrahydronaphthalen-1-yl)carbamoyl)pyrrolidin-1-yl)butan-2-yl)carbamoyl)-1H-indol-5-yl)difluoromethyl)phosphonic acid] | > 10 µM | 1 to 10 µM |
| CC(C)(C)[C@H](NC(=O)c1cc2cc(C(F)(F)P(=O)(O)O)ccc2[nH]1)C(=O)N1CCC[C@H]1C(=O)NC1CCc2ccccc21 (stereo partly drawn) [Compound 12, ((2-(((2S)-1-((2S)-2-((2,3-dihydro-1H-inden-1-yl)carbamoyl)pyrrolidin-1-yl)-3,3-dimethyl-1-oxobutan-2-yl)carbamoyl)-1H-indol-5-yl)difluoromethyl)phosphonic acid] | > 10 µM | 1 to 10 µM |
| CC(C)(C)[C@H](NC(=O)c1cc2cc(C(F)(F)P(=O)(O)O)ccc2[nH]1)C(=O)N1CCC[C@H]1C(=O)N1CCN(c2ccccc2)CC1 [Compound 13, ((2-(((S)-3,3-dimethyl-1-oxo-1-((S)-2-(4-phenylpiperazine-1-carbonyl)pyrrolidin-1-yl)butan-2-yl)carbamoyl)-1H-indol-5-yl)difluoromethyl)phosphonic acid] | > 10 µM | 1 to 10 µM |
| CC(C)(C)[C@H](NC(=O)c1cc2cc(C(F)(F)P(=O)(O)O)ccc2[nH]1)C(=O)N1CCC[C@H]1C(=O)NC(c1ccccc1)c1ccccc1 [Compound 14, ((2-(((S)-1-((S)-2-(benzhydrylcarbamoyl)pyrrolidin-1-yl)-3,3-dimethyl-1-oxobutan-2-yl)carbamoyl)-1H-indol-5-yl)difluoromethyl)phosphonic acid] | > 10 µM | 1 to 10 µM |
| CC(C)(C)[C@H](NC(=O)c1cc2cc(C(F)(F)P(=O)(O)O)ccc2[nH]1)C(=O)N1CCC[C@H]1C(=O)Nc1ccc2ccccc2c1 [Compound 15, ((2-(((S)-3,3-dimethyl-1-((S)-2-(naphthalen-2-ylcarbamoyl)pyrrolidin-1-yl)-1-oxobutan-2-yl)carbamoyl)-1H-indol-5-yl)difluoromethyl)phosphonic acid] | 1 to 10 µM | 1 to 10 µM |

— US20230295200A1 (REGENTS OF THE UNIVERSITY OF MICHIGAN, priority 2022, published 2023)
